# Assay results taken from paper PMC5766581, “NF-κB inducing kinase is a therapeutic target for systemic lupus erythematosus” (Nature Communications, 2018).
# Where “and” joins values, the source holds several entries; their conditions need not be identical. Equal entries are not always repeated.
# Assays:
# Test in all cases: SelectScreen kinase panel
# Type in all cases: biochemical
# PKC_zeta = biological target: T1, PKC_zeta (Homo sapiens, UniProt Q05513)
# T1 construct: purchased Invitrogen / ThermoFisher SelectScreen
# Method: (§1) The ability of NIK to catalyze the hydrolysis of adenosine-5′-triphosphate (ATP) was monitored using the Transcreener ADP (adenosine-5′-diphosphate) assay (Bell Brook Labs, Fitchburg, WI). Purified human NIK kinase domain (a.a. 340–694) (0.5 nM) or mouse NIK kinase domain (a.a. 329–675) (1 nM) derived from a baculovirus-infected insect cell expression system was incubated with test compounds for 0.5–2 h in 50 mM HEPES buffer (pH 7.2) containing 10 mM MgCl2, 2 mM dithiothreitol, 10 μM ATP, 0.01% Triton X-100, 0.1% gamma-globulins from bovine blood, 1% dimethylsulfoxide (DMSO), 7 μg/mL ADP antibody and 5 nM ADP-MR121 633 tracer. Reactions were quenched by the addition of 20 mM EDTA and 0.01% Brij 35. The tracer bound to the antibody was displaced by the ADP generated during the NIK reaction, which caused a decrease in fluorescence polarization that was measured by laser excitation at 633 nm with a Fluorescence Correlation Spectroscopy Plus reader (Evotec AG). Equilibrium dissociation constant (Ki) values for NIK inhibitors are calculated from plots of activity vs. inhibitor concentration using Morrison’s quadratic equation that accounts for the potential of tight binding, and by also applying the conversion factor that accounted for competitive inhibition and the concentration of substrate used in the assay relative to its Michaelis constant (Km). The Ki values with hPKD1 (PKCμ) were determined using the same assay conditions as for NIK. Ki measurements for hKHS1 and hLRRK2, as well as broad kinase selectivity profiling for SMI1, were carried out by Invitrogen using their SelectScreen kinase assay panel (ThermoFisher Scientific, Madison, WI). The vendor offered two types of kinase activity assays, a peptide phosphorylation assay (Z′-LYTE) and an ADP quantitation assay (Adapta), as well as one type of kinase ATP site competitive binding assay (LanthaScreen). See vendor web site for technology and protocol details for each specific kinase assay.
# (§2) The average % Inhibition of each kinase is reported (Supplementary Table 1).
# EGFR (T790M,L858R) = biological target: T2, EGFR (T790M,L858R) (Homo sapiens, UniProt P00533, L858R/T790M)
# T2 construct: purchased Invitrogen / ThermoFisher SelectScreen
# Method: as §1, §2
# CSK = biological target: T3, CSK (Homo sapiens, UniProt P41240)
# T3 construct: purchased Invitrogen / ThermoFisher SelectScreen
# Method: as §1, §2
# Ron = biological target: T4, Ron (Homo sapiens, UniProt Q04912)
# T4 construct: purchased Invitrogen / ThermoFisher SelectScreen
# Method: as §1, §2
# EphA7 = biological target: T5, EphA7 (Homo sapiens, UniProt Q15375)
# T5 construct: purchased Invitrogen / ThermoFisher SelectScreen
# Method: as §1, §2
# CDK2/CyclinA = biological target: T6, CDK2/CyclinA (Homo sapiens, UniProt P24941)
# T6 construct: purchased Invitrogen / ThermoFisher SelectScreen
# Method: as §1, §2
# Aurora_A = biological target: T7, Aurora_A (Homo sapiens, UniProt O14965)
# T7 construct: purchased Invitrogen / ThermoFisher SelectScreen
# Method: as §1, §2
# ERK2 = biological target: T8, ERK2 (Homo sapiens, UniProt P28482)
# T8 construct: purchased Invitrogen / ThermoFisher SelectScreen
# Method: as §1, §2
# ROCK2 = biological target: T9, ROCK2 (Homo sapiens, UniProt O75116)
# T9 construct: purchased Invitrogen / ThermoFisher SelectScreen
# Method: as §1, §2
# PRAK = biological target: T10, PRAK (Homo sapiens, UniProt Q8IW41)
# T10 construct: purchased Invitrogen / ThermoFisher SelectScreen
# Method: as §1, §2
# KHS1 = biological target: T11, KHS1 (Homo sapiens, UniProt Q9Y4K4); conditions: NIK SMI1 1 µM; ATP Km app
# T11 construct: purchased Invitrogen / ThermoFisher SelectScreen
# Method: as §1, §2
# RSK3 = biological target: T12, RSK3 (Homo sapiens, UniProt Q15349)
# T12 construct: purchased Invitrogen / ThermoFisher SelectScreen
# Method: as §1, §2
# Src = biological target: T13, Src (Homo sapiens, UniProt P12931)
# T13 construct: purchased Invitrogen / ThermoFisher SelectScreen
# Method: as §1, §2
# MARK1 = biological target: T14, MARK1 (Homo sapiens, UniProt Q9P0L2)
# T14 construct: purchased Invitrogen / ThermoFisher SelectScreen
# Method: as §1, §2
# Flt4 = biological target: T15, Flt4 (Homo sapiens, UniProt P35916)
# T15 construct: purchased Invitrogen / ThermoFisher SelectScreen
# Method: as §1, §2
# TrkA = biological target: T16, TrkA (Homo sapiens, UniProt P04629)
# T16 construct: purchased Invitrogen / ThermoFisher SelectScreen
# Method: as §1, §2
# MAP4K4 = biological target: T17, MAP4K4 (Homo sapiens, UniProt O95819)
# T17 construct: purchased Invitrogen / ThermoFisher SelectScreen
# Method: as §1, §2
# TAO1 = biological target: T18, TAO1 (Homo sapiens, UniProt Q9UL54)
# T18 construct: purchased Invitrogen / ThermoFisher SelectScreen
# Method: as §1, §2
# PhK_gamm1 = biological target: T19, PhK_gamm1 (Homo sapiens, UniProt Q16816)
# T19 construct: purchased Invitrogen / ThermoFisher SelectScreen
# Method: as §1, §2
# LTK = biological target: T20, LTK (Homo sapiens, UniProt P29376)
# T20 construct: purchased Invitrogen / ThermoFisher SelectScreen
# Method: as §1, §2
# NEK1 = biological target: T21, NEK1 (Homo sapiens, UniProt Q96PY6)
# T21 construct: purchased Invitrogen / ThermoFisher SelectScreen
# Method: as §1, §2
# JAK1 = biological target: T22, JAK1 (Homo sapiens, UniProt P23458)
# T22 construct: purchased Invitrogen / ThermoFisher SelectScreen
# Method: as §1, §2
# IRAK1 = biological target: T23, IRAK1 (Homo sapiens, UniProt P51617)
# T23 construct: purchased Invitrogen / ThermoFisher SelectScreen
# Method: as §1, §2
# GSK3_beta = biological target: T24, GSK3_beta (Homo sapiens, UniProt P49841)
# T24 construct: purchased Invitrogen / ThermoFisher SelectScreen
# Method: as §1, §2
# p38_alpha = biological target: T25, p38_alpha (Homo sapiens, UniProt Q16539)
# T25 construct: purchased Invitrogen / ThermoFisher SelectScreen
# Method: as §1, §2
# P38_gamma = biological target: T26, P38_gamma (Homo sapiens, UniProt P53778)
# T26 construct: purchased Invitrogen / ThermoFisher SelectScreen
# Method: as §1, §2
# MAPKAPK2 = biological target: T27, MAPKAPK2 (Homo sapiens, UniProt P49137)
# T27 construct: purchased Invitrogen / ThermoFisher SelectScreen
# Method: as §1, §2
# Frk = biological target: T28, Frk (Homo sapiens, UniProt P42685)
# T28 construct: purchased Invitrogen / ThermoFisher SelectScreen
# Method: as §1, §2
# CLK2 = biological target: T29, CLK2 (Homo sapiens, UniProt P49760)
# T29 construct: purchased Invitrogen / ThermoFisher SelectScreen
# Method: as §1, §2
# GRK5 = biological target: T30, GRK5 (Homo sapiens, UniProt P34947)
# T30 construct: purchased Invitrogen / ThermoFisher SelectScreen
# Method: as §1, §2
# IKK_beta = biological target: T31, IKK_beta (Homo sapiens, UniProt O14920)
# T31 construct: purchased Invitrogen / ThermoFisher SelectScreen
# Method: as §1, §2
# SPHK1 = biological target: T32, SPHK1 (Homo sapiens, UniProt Q9NYA1)
# T32 construct: purchased Invitrogen / ThermoFisher SelectScreen
# Method: as §1, §2
# T11 sequence (Q9Y4K4 whole entry): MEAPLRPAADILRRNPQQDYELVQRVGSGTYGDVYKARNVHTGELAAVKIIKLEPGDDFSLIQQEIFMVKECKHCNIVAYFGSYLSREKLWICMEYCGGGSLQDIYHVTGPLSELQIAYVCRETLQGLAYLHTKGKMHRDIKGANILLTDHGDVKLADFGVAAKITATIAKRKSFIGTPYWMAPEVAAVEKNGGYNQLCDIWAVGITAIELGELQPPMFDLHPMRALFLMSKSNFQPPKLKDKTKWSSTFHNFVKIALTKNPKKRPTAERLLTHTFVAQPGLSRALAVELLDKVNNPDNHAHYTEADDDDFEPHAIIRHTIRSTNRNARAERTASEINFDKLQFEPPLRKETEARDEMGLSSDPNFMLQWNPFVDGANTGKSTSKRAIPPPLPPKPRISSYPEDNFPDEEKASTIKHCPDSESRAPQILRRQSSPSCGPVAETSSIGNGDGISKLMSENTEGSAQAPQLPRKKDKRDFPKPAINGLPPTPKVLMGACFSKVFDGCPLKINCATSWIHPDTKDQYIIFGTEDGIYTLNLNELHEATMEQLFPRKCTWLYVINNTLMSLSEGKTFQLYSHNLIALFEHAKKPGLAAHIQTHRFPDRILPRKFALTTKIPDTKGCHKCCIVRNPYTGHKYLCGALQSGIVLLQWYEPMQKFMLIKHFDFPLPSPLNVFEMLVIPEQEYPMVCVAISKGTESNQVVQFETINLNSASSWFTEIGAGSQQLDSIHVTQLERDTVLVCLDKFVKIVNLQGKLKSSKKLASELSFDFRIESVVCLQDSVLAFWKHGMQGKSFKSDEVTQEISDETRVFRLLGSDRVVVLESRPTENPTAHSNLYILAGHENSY
# T22 sequence (P23458 whole entry): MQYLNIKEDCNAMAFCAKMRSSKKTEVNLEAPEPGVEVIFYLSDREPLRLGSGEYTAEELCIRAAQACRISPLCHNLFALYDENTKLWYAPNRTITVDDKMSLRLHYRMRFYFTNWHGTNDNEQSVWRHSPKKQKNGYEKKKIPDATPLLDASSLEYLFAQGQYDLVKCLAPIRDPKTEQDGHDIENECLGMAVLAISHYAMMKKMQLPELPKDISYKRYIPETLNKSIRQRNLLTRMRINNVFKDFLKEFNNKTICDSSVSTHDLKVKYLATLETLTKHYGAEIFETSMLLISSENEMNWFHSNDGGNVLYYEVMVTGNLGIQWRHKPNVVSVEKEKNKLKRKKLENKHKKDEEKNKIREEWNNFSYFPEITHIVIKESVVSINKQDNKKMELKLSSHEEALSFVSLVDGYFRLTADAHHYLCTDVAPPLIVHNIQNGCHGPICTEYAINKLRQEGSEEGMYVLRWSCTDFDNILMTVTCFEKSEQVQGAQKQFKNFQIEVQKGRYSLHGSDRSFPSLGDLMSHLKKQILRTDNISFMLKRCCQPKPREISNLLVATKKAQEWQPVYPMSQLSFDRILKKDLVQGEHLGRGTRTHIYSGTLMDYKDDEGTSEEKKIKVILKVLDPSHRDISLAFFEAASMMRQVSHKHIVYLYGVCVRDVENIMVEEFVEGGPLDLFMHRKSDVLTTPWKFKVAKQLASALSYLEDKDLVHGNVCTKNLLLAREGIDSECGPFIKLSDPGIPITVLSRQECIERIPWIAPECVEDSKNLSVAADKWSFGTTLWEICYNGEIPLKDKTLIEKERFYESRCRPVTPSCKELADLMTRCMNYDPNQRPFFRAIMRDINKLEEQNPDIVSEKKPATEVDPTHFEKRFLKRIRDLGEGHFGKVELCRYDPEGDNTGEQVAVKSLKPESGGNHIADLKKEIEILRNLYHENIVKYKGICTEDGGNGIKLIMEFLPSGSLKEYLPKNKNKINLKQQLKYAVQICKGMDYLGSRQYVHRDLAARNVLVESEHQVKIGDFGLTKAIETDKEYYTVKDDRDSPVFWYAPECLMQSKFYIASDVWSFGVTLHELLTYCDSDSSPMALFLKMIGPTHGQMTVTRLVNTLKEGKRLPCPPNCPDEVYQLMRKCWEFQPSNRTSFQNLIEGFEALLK
# T2 sequence (P00533 25-1210 T790M/L858R): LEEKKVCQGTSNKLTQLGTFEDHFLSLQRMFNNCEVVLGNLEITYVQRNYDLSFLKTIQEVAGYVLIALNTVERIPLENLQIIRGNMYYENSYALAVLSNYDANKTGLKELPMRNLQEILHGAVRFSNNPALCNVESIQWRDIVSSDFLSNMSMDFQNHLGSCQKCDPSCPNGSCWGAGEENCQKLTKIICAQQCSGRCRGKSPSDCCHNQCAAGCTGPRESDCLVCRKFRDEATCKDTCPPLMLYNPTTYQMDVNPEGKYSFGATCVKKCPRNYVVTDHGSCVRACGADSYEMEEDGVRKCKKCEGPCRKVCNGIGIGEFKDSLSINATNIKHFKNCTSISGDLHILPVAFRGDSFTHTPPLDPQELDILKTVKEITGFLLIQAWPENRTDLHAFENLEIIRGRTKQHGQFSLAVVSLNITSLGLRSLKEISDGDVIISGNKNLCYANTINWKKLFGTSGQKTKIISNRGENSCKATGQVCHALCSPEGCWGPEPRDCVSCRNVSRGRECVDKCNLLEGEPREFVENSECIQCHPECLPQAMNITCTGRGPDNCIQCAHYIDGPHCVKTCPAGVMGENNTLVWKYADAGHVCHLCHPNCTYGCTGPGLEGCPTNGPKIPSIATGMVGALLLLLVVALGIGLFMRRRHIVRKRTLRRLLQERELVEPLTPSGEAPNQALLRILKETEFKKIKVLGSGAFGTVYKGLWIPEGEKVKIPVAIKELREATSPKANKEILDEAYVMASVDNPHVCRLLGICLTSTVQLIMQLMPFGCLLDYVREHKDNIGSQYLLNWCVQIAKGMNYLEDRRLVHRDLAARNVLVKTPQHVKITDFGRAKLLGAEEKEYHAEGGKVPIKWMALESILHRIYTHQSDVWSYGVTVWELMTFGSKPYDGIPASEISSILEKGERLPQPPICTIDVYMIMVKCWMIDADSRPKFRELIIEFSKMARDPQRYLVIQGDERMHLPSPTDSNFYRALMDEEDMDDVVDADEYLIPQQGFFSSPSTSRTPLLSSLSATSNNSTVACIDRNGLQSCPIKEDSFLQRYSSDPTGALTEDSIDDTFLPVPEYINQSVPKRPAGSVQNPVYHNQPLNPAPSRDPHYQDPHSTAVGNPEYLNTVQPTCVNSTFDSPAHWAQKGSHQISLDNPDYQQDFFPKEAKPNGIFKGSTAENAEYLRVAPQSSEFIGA
# T26 sequence (P53778 whole entry): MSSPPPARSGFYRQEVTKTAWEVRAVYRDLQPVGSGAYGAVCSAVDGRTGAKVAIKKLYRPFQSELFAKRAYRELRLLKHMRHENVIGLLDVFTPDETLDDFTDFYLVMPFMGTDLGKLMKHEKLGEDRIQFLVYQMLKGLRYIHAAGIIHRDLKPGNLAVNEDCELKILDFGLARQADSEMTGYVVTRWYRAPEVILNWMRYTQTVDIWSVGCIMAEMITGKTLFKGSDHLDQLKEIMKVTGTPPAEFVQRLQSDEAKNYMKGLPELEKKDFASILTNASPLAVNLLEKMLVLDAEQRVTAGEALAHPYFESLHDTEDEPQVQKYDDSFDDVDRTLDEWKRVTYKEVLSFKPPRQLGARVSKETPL
# T16 sequence (P04629 33-796): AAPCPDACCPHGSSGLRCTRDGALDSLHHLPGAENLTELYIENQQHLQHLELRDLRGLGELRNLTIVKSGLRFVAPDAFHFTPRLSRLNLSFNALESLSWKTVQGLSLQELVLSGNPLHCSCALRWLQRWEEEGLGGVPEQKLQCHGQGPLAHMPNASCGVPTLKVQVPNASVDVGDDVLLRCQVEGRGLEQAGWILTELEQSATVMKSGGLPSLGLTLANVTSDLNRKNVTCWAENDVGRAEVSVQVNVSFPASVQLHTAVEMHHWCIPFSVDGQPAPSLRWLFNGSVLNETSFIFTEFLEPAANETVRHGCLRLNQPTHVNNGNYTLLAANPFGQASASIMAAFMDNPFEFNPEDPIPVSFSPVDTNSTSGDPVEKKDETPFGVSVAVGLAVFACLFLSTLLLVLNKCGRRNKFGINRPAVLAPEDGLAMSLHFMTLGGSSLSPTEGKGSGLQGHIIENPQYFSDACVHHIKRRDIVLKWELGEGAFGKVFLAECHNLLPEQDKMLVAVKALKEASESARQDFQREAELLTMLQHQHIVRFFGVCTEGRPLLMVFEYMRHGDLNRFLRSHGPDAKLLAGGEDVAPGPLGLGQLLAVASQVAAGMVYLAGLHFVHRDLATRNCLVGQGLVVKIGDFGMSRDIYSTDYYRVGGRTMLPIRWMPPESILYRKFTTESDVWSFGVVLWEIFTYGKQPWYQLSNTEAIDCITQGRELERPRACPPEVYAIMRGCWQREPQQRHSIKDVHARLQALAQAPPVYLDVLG
# T28 sequence (P42685 whole entry): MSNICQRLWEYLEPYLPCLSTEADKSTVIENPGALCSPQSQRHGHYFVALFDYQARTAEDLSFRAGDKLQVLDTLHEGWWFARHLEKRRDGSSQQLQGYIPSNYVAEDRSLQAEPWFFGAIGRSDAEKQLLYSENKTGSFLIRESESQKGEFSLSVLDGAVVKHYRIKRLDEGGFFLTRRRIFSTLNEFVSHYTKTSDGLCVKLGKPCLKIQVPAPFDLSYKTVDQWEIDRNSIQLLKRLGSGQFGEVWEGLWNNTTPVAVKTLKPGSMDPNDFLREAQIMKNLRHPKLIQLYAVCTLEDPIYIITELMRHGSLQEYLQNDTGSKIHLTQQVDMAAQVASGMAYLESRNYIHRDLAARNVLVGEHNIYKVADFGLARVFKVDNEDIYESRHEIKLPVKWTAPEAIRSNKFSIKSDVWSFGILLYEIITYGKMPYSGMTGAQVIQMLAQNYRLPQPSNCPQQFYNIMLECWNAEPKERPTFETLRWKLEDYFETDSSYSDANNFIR
smiles,measurement,setting,value
COc1cc(C(N)=O)nc(-c2cccc(C#C[C@]3(O)CCN(C)C3=O)c2)c1 [NIK SMI1],inhibition at 1 µM,PKC_zeta,7%
same,inhibition at 1 µM,"EGFR (T790M,L858R)",9.5%
same,inhibition at 1 µM,CSK,12.5%
same,inhibition at 1 µM,Ron,13%
same,inhibition at 1 µM,EphA7,5.1%
same,inhibition at 1 µM,CDK2/CyclinA,-1.5%
same,inhibition at 1 µM,Aurora_A,1%
same,inhibition at 1 µM,ERK2,5.5%
same,inhibition at 1 µM,ROCK2,7.5%
same,inhibition at 1 µM,PRAK,6%
same,% Inhibition,KHS1,> 75% and 96%
same,inhibition at 1 µM,RSK3,5%
same,inhibition at 1 µM,Src,-1.5%
same,inhibition at 1 µM,MARK1,16%
same,inhibition at 1 µM,Flt4,9%
same,inhibition at 1 µM,TrkA,2.5%
same,inhibition at 1 µM,MAP4K4,45.5%
same,inhibition at 1 µM,TAO1,17%
same,inhibition at 1 µM,PhK_gamm1,6.5%
same,inhibition at 1 µM,LTK,-1%
same,inhibition at 1 µM,NEK1,31.5%
same,inhibition at 1 µM,JAK1,-7%
same,inhibition at 1 µM,IRAK1,1.8%
same,inhibition at 1 µM,GSK3_beta,5%
same,inhibition at 1 µM,p38_alpha,-7.5%
same,inhibition at 1 µM,P38_gamma,14%
same,inhibition at 1 µM,MAPKAPK2,-5%
same,inhibition at 1 µM,Frk,18%
same,inhibition at 1 µM,CLK2,25%
same,inhibition at 1 µM,GRK5,0.5%
same,inhibition at 1 µM,IKK_beta,4.5%
same,inhibition at 1 µM,SPHK1,21.3%
